Patent US20260085062A1, “NOVEL COMPOUNDS AS CK2 INHIBITORS” (Cambridge Enterprise Limited, priority 2022, published 2026)

Legend:
CK2α = molecular target: T1, CK2α (Homo sapiens, UniProt P68400); assay: Biochemical assay for inhibitors of CK2α kinase activity (ADP-Glo); settings: 0.2 nM CK2α, 50 μM peptide substrate, 15 μM ATP, read-out: Assay 1: CK2α Enzyme IC50
T1 construct: CK2α (residues 2-329) was produced in Escherichia coli BL21 (DE3) for kinase activity screening; His6 (N, cleaved yes); made in house; host or cells: Escherichia coli BL21 (DE3)
T1 sequence (P68400 2-329): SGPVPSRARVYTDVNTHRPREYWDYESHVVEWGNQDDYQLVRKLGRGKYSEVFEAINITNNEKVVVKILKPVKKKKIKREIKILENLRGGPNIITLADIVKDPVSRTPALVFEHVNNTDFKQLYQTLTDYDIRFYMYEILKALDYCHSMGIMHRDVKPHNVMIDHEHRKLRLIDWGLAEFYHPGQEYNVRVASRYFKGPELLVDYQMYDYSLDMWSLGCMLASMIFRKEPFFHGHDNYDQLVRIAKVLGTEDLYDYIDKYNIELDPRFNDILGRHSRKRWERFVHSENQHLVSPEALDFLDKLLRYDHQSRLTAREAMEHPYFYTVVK
Description: The inhibitory activity of putative kinase inhibitors and the potency of selected compounds were determined using ADP-Glo™ assay. The kinase reaction was performed in the presence of excess peptide substrate and ATP at a concentration equivalent to Km. Upon termination of the kinase reaction, remaining ATP was depleted leaving only ADP reaction product, which was converted back to ATP with a coupled luciferin/luciferase reaction. The luminescent output from the coupled reaction was quantified and correlated with the kinase activity. […] Single colonies of the cells were grown in 6×1 L of 2×TY with 100 μg/mL ampicillin at 37° C. […] The cells were incubated overnight at 25° C. then harvested by centrifugation at 4,000 g for 20 minutes. The cell pellets were suspended in 20 mM Tris, 500 mM NaCl, pH 8.0 and lysed using a high pressure homogenizer. Protease inhibitor cocktail tablets (one tablet per 50 mL extract; Roche Diagnostics) and DNase I were then added. The crude cell extract was then centrifuged at 10,000 g for 45 minutes, the supernatant was filtered with a 0.22 μm filter. The soluble supernatant was applied on a Ni Sepharose Fast Flow6 column at pH 8.0, washed and eluted in 20 mM Tris pH 8.0, 500 mM NaCl, 200 mM imidazole. […] The cleaved protein was further purified on a Sepharose Q HP anion-exchange column and the main peak fraction from this column was further purified by gel filtration on a Superdex 75 16/60 HiPrep column equilibrated with Tris 20 mM, pH 8.0, 500 mM NaCl. Pure protein was concentrated to 15 mg/mL and flash frozen in liquid nitrogen. […] The assay was conducted as follows: • 1. […] After 120 minutes, the reaction was stopped by addition of 5 pl ADP-Glo reagent (Promega V9102) and the plate incubated at RT for a further 60 minutes. • 5. 10 μL of Kinase Detection reagent (Promega V9102) was added to assay plate and incubated for a further 30 minutes prior to reading luminescence on an Envision (Perkin-Elmer). Data was analysed to calculate compound IC50and Ki as follows: • 1. […] Percent activity was calculated for each well using: (Test well reading−MEAN100%inhibition control wells)/(MEAN0% inhibition control wells−MEAN100%inhibition control wells). • 5. Morrison Ki was determined using Morrison Ki equation (XL-fit).

intracellular CK2α = molecular target: T2, intracellular CK2α (Homo sapiens, UniProt P19784); assay: Cell-based NanoBRET assay for inhibitor binding to intracellular CK2α; settings: HCT116 cells transiently transfected with CSNK2A2-NanoLuc fusion vector; Tracer K-5; 2 h; read-out: Assay 3: NanoBRET ™ assay for binding to intracellular CK2α
T2 construct: host or cells: HCT116 (ATCC CCL-247)
Description: This assay used the NanoBRET™ System (Promega), an energy transfer technique designed to measure molecular proximity in living cells. The assay measured the apparent affinity of test compounds by competitive displacement of a NanoBRET™ tracer reversibly bound to a NanoLucR luciferase CK2α fusion protein in cells. A fixed concentration of tracer was added to cells expressing the desired NanoLucR-CK2α fusion protein to generate a BRET reporter complex. […] Donor emission wavelength (450 nm) and acceptor emission wavelength (610 nm or 630 nm) were measured on the Envision (Perkin-Elmer) and BRET ratio calculated for data analysis: BRET Ratio=(Acceptorsample/Donorsample)×1,000. • 7.

CLK2 = molecular target: T3, CLK2 (Homo sapiens, UniProt P49760); assay: Biochemical assay for inhibitors of CLK2 kinase activity (ADP-Glo); settings: 20 nM CLK2, 50 μM peptide substrate, 100 μM ATP, read-out: Assay 2: CLK2 Enzyme IC50
T3 construct: purchased Carna Biosciences 04-127
Description: The inhibitory activity of putative kinase inhibitors and the potency of selected compounds were determined using ADP-GloTM assay. The kinase reaction was performed in the presence of excess peptide substrate and ATP at a concentration equivalent to Km. Upon termination of the kinase reaction, remaining ATP was depleted leaving only ADP reaction product, which was converted back to ATP with a coupled luciferin/luciferase reaction. The luminescent output from the coupled reaction was quantified and correlated with the kinase activity. […] The assay was conducted as follows: • 1. […] After 120 minutes, the reaction was stopped by addition of 5 pl ADP-Glo reagent (Promega V9102) and the plate incubated at RT for a further 60 minutes. • 5. 10 μL of Kinase Detection reagent (Promega V9102) was added to assay plate and incubated for a further 30 minutes prior to reading luminescence on an Envision (Perkin-Elmer). Data was analysed to calculate compound IC50and Ki as follows: • 1. […] Morrison Ki was determined using Morrison Ki equation (XL-fit).

T3 sequence (P49760 whole entry): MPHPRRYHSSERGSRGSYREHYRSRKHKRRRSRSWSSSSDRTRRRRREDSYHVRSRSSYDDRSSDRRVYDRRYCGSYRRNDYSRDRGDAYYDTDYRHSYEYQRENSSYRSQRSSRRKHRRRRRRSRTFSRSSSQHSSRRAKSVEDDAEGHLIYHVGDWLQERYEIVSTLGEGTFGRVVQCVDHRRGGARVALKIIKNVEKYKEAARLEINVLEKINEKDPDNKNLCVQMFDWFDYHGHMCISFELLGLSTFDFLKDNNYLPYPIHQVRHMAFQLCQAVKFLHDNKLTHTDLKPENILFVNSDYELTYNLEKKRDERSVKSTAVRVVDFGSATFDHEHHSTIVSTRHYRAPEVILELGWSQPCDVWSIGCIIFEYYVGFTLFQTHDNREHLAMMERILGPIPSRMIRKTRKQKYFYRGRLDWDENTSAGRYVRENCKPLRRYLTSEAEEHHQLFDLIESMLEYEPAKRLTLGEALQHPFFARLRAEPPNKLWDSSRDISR
T2 sequence (P19784 whole entry, the tested form may be a part): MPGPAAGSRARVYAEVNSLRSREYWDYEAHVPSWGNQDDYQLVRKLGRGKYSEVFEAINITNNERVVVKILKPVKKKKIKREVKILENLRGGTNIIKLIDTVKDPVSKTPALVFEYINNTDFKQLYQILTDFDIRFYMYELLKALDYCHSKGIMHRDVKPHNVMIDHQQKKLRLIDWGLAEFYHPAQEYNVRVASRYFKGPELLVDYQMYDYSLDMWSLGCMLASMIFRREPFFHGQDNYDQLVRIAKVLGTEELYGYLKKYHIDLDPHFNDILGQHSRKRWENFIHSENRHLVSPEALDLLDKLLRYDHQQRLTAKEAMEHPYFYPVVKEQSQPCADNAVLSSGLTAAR

Compound	IC50 (CK2α)	IC50 (intracellular CK2α)	IC50 (CLK2)
O=C(CCNCc1ccc(-c2ccccc2)c(Cl)c1)NCCCNc1cc(-c2ccncc2)cc2[nH]ncc12 [Example 1, 3-(((2-Chloro-[1,1′-biphenyl]-4-yl)methyl)amino)-N-(3-((6-(pyridin-4-yl)-1H-indazol-4-yl)amino)propyl)propanamide]	1.38 nM	124 nM	226 nM
O=C(CCNCc1ccc(OC(F)(F)F)c(Cl)c1)NCCCNc1cc(-c2ccncc2)cc2[nH]ncc12 [Example 5, 3-((3-Chloro-4-(trifluoromethoxy)benzyl)amino)-N-(3-((6-(pyridin-4-yl)-1H-indazol-4-yl)amino)propyl)propanamide]	2.15 nM	240 nM	306 nM
O=C(CCNCc1ccc(-c2ccccc2)c(Cl)c1)NCCCNc1cc(-c2ccnnc2)cc2[nH]ncc12 [Example 6, 3-(((2-chloro-[1,1′-biphenyl]-4-yl)methyl)amino)-N-(3-((6-(pyridazin-4-yl)-1H-indazol-4-yl)amino)propyl)propanamide]	0.19 nM	50.8 nM	235 nM
O=C(CCNCc1ccc(-c2ccccc2)c(Cl)c1)NCCCNc1cc(-c2ccncc2)cc2[nH]nnc12 [Example 8, 3-(((2-chloro-[1,1′-biphenyl]-4-yl)methyl)amino)-N-(3-((6-(pyridin-4-yl)-1H-benzo[d][1,2,3]triazol-4-yl)amino)propyl)propanamide]	0.62 nM	304 nM	1100 nM
O=C(O)c1cc(NCCCCNCCCCNCc2ccc(-c3ccccc3)c(Cl)c2)c2cn[nH]c2c1 [Example 60, 4-((4-((4-(((2-chloro-[1,1′-biphenyl]-4-yl)methyl)amino)butyl)amino)butyl)amino)-1H-indazole-6-carboxylic acid]	215 nM		30200 nM

The next lines start with the values.

IC50 (CK2α)	IC50 (intracellular CK2α)	IC50 (CLK2)	Compound
12.5 nM	5880 nM	1230 nM	NC(=O)c1cc(NCCCNC(=O)CCNCc2ccc(-c3ccccc3)c(Cl)c2)c2cn[nH]c2c1 [Example 2, 4-((3-(3-(((2-chloro-[1,1′-biphenyl]-4-yl)methyl)amino)propanamido)propyl)amino)-1H-indazole-6-carboxamide]
0.77 nM	135 nM	33.4 nM	O=C(CCNCc1ccc(-c2ccccc2)c(Cl)c1)NCCCNc1cc(-c2cn[nH]c2)cc2[nH]ncc12 [Example 3, N-(3-((6-(1H-pyrazol-4-yl)-1H-indazol-4-yl)amino)propyl)-3-(((2-chloro-[1,1′-biphenyl]-4-yl)methyl)amino)propanamide]
3.63 nM	242 nM	1010 nM	O=C(CCNCc1ccc(-c2ccccc2)c(Cl)c1)NCCCNc1cc(-n2cncn2)cc2[nH]ncc12 [Example 4, N-(3-((6-(1H-1,2,4-triazol-1-yl)-1H-indazol-4-yl)amino)propyl)-3-(((2-chloro-[1,1′-biphenyl]-4-yl)methyl)amino)propanamide]
0.25 nM	146 nM	69.8 nM	N#Cc1n[nH]cc1-c1cc(NCCCNC(=O)CCNCc2ccc(-c3ccccc3)c(Cl)c2)c2cn[nH]c2c1 [Example 7, 3-(((2-chloro-[1,1′-biphenyl]-4-yl)methyl)amino)-N-(3-((6-(3-cyano-1H-pyrazol-4-yl)-1H-indazol-4-yl)amino)propyl)propanamide]
7.69 nM	8550 nM	568 nM	Cc1nc(-c2cc(NCCCNC(=O)CCNCc3ccc(-c4ccccc4)c(Cl)c3)c3cn[nH]c3c2)c[nH]1 [Example 9, 3-(((2-chloro-[1,1′-biphenyl]-4-yl)methyl)amino)-N-(3-((6-(2-methyl-1H-imidazol-4-yl)-1H-indazol-4-yl)amino)propyl)propanamide]
6.96 nM	449 nM	132 nM	N#Cc1cc(NCCCNC(=O)CCNCc2ccc(-c3ccccc3)c(Cl)c2)c2cn[nH]c2c1 [Example 10, 3-(((2-chloro-[1,1′-biphenyl]-4-yl)methyl)amino)-N-(3-((6-cyano-1H-indazol-4-yl)amino)propyl)propanamide]
